Compound: Cc1ccc(C(=O)Nc2ccc(CN3CCN(C)CC3)c(C(F)(F)F)c2)cc1C#Cc1cnc2cccnn12 [Ponatinib] + COc1cccc2cc(-c3nc([C@H]4CC[C@H](C(=O)O)CC4)n4ncnc(N)c34)[nH]c12 [OSI-027] (partner 0.5 µM)
Experiment: relative viability (nuclei count vs DMSO), 5 days (fraction); higher = more cells survive
Details: first compound 0.002 µM
Method in brief: (§1)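 Five library-drug doses in √10 steps were combined with a fixed anchor-drug dose, or a single drug was given alone, by pin tool to lung cancer cell lines in 1536-well plates the day after seeding. Nuclei were stained and counted after 5 days. Relative viability is the nuclei count in treated wells over that in vehicle wells, taken as the median of duplicate plates.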

First: 201T
Second: NCI-H1915
The relative viability of the first is higher: 0.622 for the first, 0.546 for the second.

Going from HCC-827 to LXF-289, the relative viability rises from 0.681 to 0.735.

First: NCI-H23
Second: NCI-H650
The relative viability of the first is higher: 0.621 for the first, 0.378 for the second.

First: CAL-12T
Second: NCI-H1651
The relative viability of the first is lower: 0.571 for the first, 0.639 for the second.

Going from EPLC-272H to NCI-H2228, the relative viability rises from 0.283 to 0.474.

Same assay, conditions: first compound 0.006325 µM

First: NCI-H460
Second: NCI-H727
The relative viability of the first is higher: 0.56 for the first, 0.558 for the second.

Going from NCI-H1734 to NCI-H520, the relative viability falls from 0.589 to 0.244.

First: NCI-H2405
Second: SW 1573
The relative viability of the first is higher: 0.642 for the first, 0.483 for the second.

Compared with NCI-H1793, 201T is higher in relative viability: 0.256 for the first, 0.724 for the second.

Compared with NCI-H1915, HCC-827 is higher in relative viability: 0.651 for the first, 0.833 for the second.

First: LXF-289
Second: NCI-H23
The relative viability of the first is higher: 0.808 for the first, 0.645 for the second.

Compared with NCI-H650, CAL-12T is higher in relative viability: 0.49 for the first, 0.523 for the second.

Going from NCI-H1651 to EPLC-272H, the relative viability falls from 0.638 to 0.278.

NCI-H2228 gave a relative viability of 0.431.

Same assay, conditions: first compound 0.06325 µM

First: NCI-H460
Second: NCI-H727
The relative viability of the first is higher: 0.637 for the first, 0.617 for the second.

Going from NCI-H1734 to NCI-H520, the relative viability falls from 0.521 to 0.203.

Going from NCI-H2405 to SW 1573, the relative viability rises from 0.605 to 0.718.

Compared with NCI-H1793, 201T is higher in relative viability: 0.273 for the first, 0.796 for the second.

Compared with NCI-H1915, HCC-827 is higher in relative viability: 0.639 for the first, 0.739 for the second.

Compared with LXF-289, NCI-H23 is lower in relative viability: 0.916 for the first, 0.53 for the second.

Going from NCI-H650 to CAL-12T, the relative viability rises from 0.456 to 0.568.

First: NCI-H1651
Second: EPLC-272H
The relative viability of the first is higher: 0.825 for the first, 0.299 for the second.

NCI-H2228 gave a relative viability of 0.705.

Same assay, conditions: first compound 0.2 µM

Going from NCI-H460 to NCI-H727, the relative viability rises from 0.49 to 0.508.

Going from NCI-H1734 to NCI-H520, the relative viability falls from 0.449 to 0.2.

Going from NCI-H2405 to SW 1573, the relative viability falls from 0.631 to 0.522.

Going from NCI-H1793 to 201T, the relative viability rises from 0.175 to 0.711.

Going from NCI-H1915 to HCC-827, the relative viability rises from 0.56 to 0.702.

First: LXF-289
Second: NCI-H23
The relative viability of the first is higher: 0.714 for the first, 0.456 for the second.

Compared with NCI-H650, CAL-12T is lower in relative viability: 0.466 for the first, 0.418 for the second.

Going from NCI-H1651 to EPLC-272H, the relative viability falls from 0.66 to 0.268.

Cell Line NCI-H2228 has a relative viability of 0.376.

Compound: Cc1ccc(Nc2nccc(N(C)c3ccc4c(C)n(C)nc4c3)n2)cc1S(N)(=O)=O [Pazopanib] + N=C(N)NC(=N)NCCc1ccccc1 [Phenformin] (partner 250 µM)
Experiment: as above
Details: first compound 0.01 µM
Method in brief: as §1

Compared with NCI-H460, NCI-H727 is lower in relative viability: 0.578 for the first, 0.455 for the second.

Compared with NCI-H1734, NCI-H520 is higher in relative viability: 0.353 for the first, 0.386 for the second.

First: NCI-H2405
Second: SW 1573
The relative viability of the first is lower: 0.368 for the first, 0.406 for the second.

First: 201T
Second: NCI-H1915
The relative viability of the first is higher: 0.444 for the first, 0.402 for the second.

First: HCC-827
Second: LXF-289
The relative viability of the first is lower: 0.46 for the first, 0.563 for the second.

First: NCI-H23
Second: NCI-H650
The relative viability of the first is higher: 0.565 for the first, 0.42 for the second.

Compared with CAL-12T, NCI-H1651 is lower in relative viability: 0.595 for the first, 0.359 for the second.

For NCI-H2228, the relative viability was 0.366.

Same assay, conditions: first compound 0.03162 µM

Going from NCI-H460 to NCI-H727, the relative viability falls from 0.546 to 0.522.

Compared with NCI-H1734, NCI-H520 is higher in relative viability: 0.416 for the first, 0.545 for the second.

Compared with NCI-H2405, SW 1573 is lower in relative viability: 0.399 for the first, 0.36 for the second.

Going from NCI-H1793 to 201T, the relative viability rises from 0.419 to 0.425.

Going from NCI-H1915 to HCC-827, the relative viability rises from 0.364 to 0.466.

Going from LXF-289 to NCI-H23, the relative viability rises from 0.554 to 0.87.

First: NCI-H650
Second: CAL-12T
The relative viability of the first is lower: 0.473 for the first, 0.616 for the second.

Compared with NCI-H1651, EPLC-272H is lower in relative viability: 0.351 for the first, 0.311 for the second.

Work on NCI-H2228 yielded a relative viability of 0.366.

Same assay, conditions: first compound 0.1 µM

First: NCI-H460
Second: NCI-H727
The relative viability of the first is lower: 0.525 for the first, 0.57 for the second.

First: NCI-H1734
Second: NCI-H520
The relative viability of the first is lower: 0.417 for the first, 0.507 for the second.

First: NCI-H2405
Second: SW 1573
The relative viability of the first is lower: 0.426 for the first, 0.471 for the second.

Going from NCI-H1793 to 201T, the relative viability rises from 0.394 to 0.438.

Compared with NCI-H1915, HCC-827 is higher in relative viability: 0.367 for the first, 0.374 for the second.

First: LXF-289
Second: NCI-H23
The relative viability of the first is lower: 0.507 for the first, 0.905 for the second.

Compared with NCI-H650, CAL-12T is higher in relative viability: 0.438 for the first, 0.544 for the second.

Going from NCI-H1651 to EPLC-272H, the relative viability falls from 0.343 to 0.308.

For NCI-H2228, the relative viability was 0.324.

Same assay, conditions: first compound 0.3162 µM

First: NCI-H460
Second: NCI-H727
The relative viability of the first is lower: 0.548 for the first, 0.584 for the second.

Compared with NCI-H1734, NCI-H520 is higher in relative viability: 0.495 for the first, 0.705 for the second.

Going from NCI-H2405 to SW 1573, the relative viability rises from 0.419 to 0.437.

Going from NCI-H1793 to 201T, the relative viability rises from 0.425 to 0.455.

Going from NCI-H1915 to HCC-827, the relative viability rises from 0.36 to 0.426.

First: LXF-289
Second: NCI-H23
The relative viability of the first is lower: 0.533 for the first, 0.798 for the second.

Going from NCI-H650 to CAL-12T, the relative viability rises from 0.466 to 0.664.

Going from NCI-H1651 to EPLC-272H, the relative viability falls from 0.373 to 0.347.

Cell Line NCI-H2228 has a relative viability of 0.443.

Same assay, conditions: first compound 1 µM

Compared with NCI-H460, NCI-H727 is higher in relative viability: 0.562 for the first, 0.682 for the second.

First: NCI-H1734
Second: NCI-H520
The relative viability of the first is lower: 0.418 for the first, 0.537 for the second.

Going from NCI-H2405 to SW 1573, the relative viability rises from 0.448 to 0.509.

Compared with NCI-H1793, 201T is higher in relative viability: 0.421 for the first, 0.462 for the second.

First: NCI-H1915
Second: HCC-827
The relative viability of the first is lower: 0.343 for the first, 0.414 for the second.

First: LXF-289
Second: NCI-H23
The relative viability of the first is lower: 0.525 for the first, 0.783 for the second.

First: NCI-H650
Second: CAL-12T
The relative viability of the first is lower: 0.444 for the first, 0.581 for the second.

First: NCI-H1651
Second: EPLC-272H
The relative viability of the first is lower: 0.379 for the first, 0.392 for the second.

Work on NCI-H2228 yielded a relative viability of 0.313.

From the supplement of paper PMC10307832
